Experiment [1] concerns Hedgehog pathway (Shh-induced Gli-transcription activity) in 10T1/2(s12) cells. In words: Gli-Luc assay (high-throughput screening, Hedgehog-responsive luciferase reporter). The format is cell-based. The settings on record: Gli-Luc response, OCT-SHH 0.3 μg/ml, about 24 h. As to the method:
Compounds to be tested are dissolved in DMSO to a concentration of 10 mM, and stored at −20° C. To activate the Hedgehog pathway in the assay cells, an octylated (lipid-modified) form of the N-terminal fragment of the Sonic Hedgehog protein (OCT-SHH) is used. This N-terminal SHH fragment is produced bacterially. The octylation involves reaction of the N-terminal fragment, via its amino-terminal cysteine moiety, with octyl maleimide.
Compounds may be tested in the “Gli-Luc” assay below, using the cell line 10T(s12), wherein the cells contain a Hedgehog-responsive reporter construct utilizing Luciferase as the reporter gene. In this way, Hedgehog pathway signaling activity can be measured via the Gli-Luc response.
10t1/2(s12) cells are plated in a 96-well micro-titer plate (MTP) at 20,000 cells/well in full medium [DMEM with 10% FBS]. Then plates are placed in the incubator for incubation overnight (O/N), at 37° C. and 5% CO2. After 24 h, the medium is replaced with Luciferase-assay medium (DMEM with 0.5% FBS). Compounds are thawed and diluted in assay medium at 3:1000 (about 300-fold) resulting in a starting concentration of about 30 μM.
Subsequently, 150 μl of each 30 μM sample is added to the first wells (in triplicate). The MTP samples are then diluted at 3-fold dilutions to a total of seven wells, ultimately resulting in a regiment of seven dilutions in triplicate, for each compound. Next, the protein ligand OCT-SHH is diluted in Luciferase-assay medium and added to each well at a final concentration of 0.3 μg/ml. Plates are then returned to the incubator for further incubation O/N, at 37° C. and 5% CO2. After about 24 h, plates are removed from the incubator and the medium is aspirated/discarded. Wells are washed once with assay buffer [PBS+1 mM Mg^2+ and 1 mM Ca^2+]. Then 50 μl of assay buffer is added to each well. The Luciferase assay reagent is prepared as described by the vendor (LucLite kit from Packard), and 50 μl is added to each well. Plates are incubated at room temperature (RT) for about 30 minutes after which the signals are read, again at RT, on a Topcount (Packard).
In general terms: In a reporter assay the amount or activity of a reporter protein is the signal.

In experiment [2] the test system is gli-1 mRNA in ptc-null cells. Put plainly: Ptc-null assay (RT-PCR / quantitative real-time PCR of gli-1 mRNA). The format is cell-based, mouse. The settings on record: ptc-null cells cultured 3 days, compared with vehicle; for expression of gli-1: 1 μM of test compound. As to the method: Ptc-null cells were cultured for 3 days in the presence of vehicle; jervine, a known Patched pathway antagonist (i) used here as a positive control; or 1 μM of a test compound. Total ribonucleic acid (RNA) was isolated from the cells and used for reverse transcriptase-polymerase chain reaction (RT-PCR). […] The gli-1 and actin mRNA samples were then loaded on 1.5% agarose gel and were detected by staining with ethidium bromide. The same samples were analyzed by the quantitative real-time polymerase chain reaction method to quantify the levels of gli-1 mRNA.
On the technique in general: Quantitative PCR measures a nucleic acid by following its amplification.

For orientation: IC50 means the concentration that gives 50% inhibition. `O=C(NCc1nc2ccccc2c(=O)n1-c1ccc(F)cc1)Nc1ccc(Cl)c(C(F)(F)F)c1` [Compound 5, 1-(4-Chloro-3-trifluoromethyl-phenyl)-3-[3-(4-fluoro-phenyl)-4-oxo-3,4-dihydro-quinazolin-2-ylmethyl]-urea] returned an IC50 in experiment [1] below 0.1 µM.

In the case of `O=C(NCc1nc2ccccc2c(=O)n1-c1ccc(F)cc1)Nc1cc(Cl)nc(Cl)c1` [Compound 6, 1-(2,6-Dichloro-pyridin-4-yl)-3-[3-(4-fluoro-phenyl)-4-oxo-3,4-dihydro-quinazolin-2-ylmethyl]-urea], the IC50 in experiment [1] was below 0.5 µM.

In experiment [1], `CC(c1nc2ccccc2c(=O)n1-c1ccc(F)cc1)N(Cc1ccco1)C(=O)Nc1cccc(F)c1` (stereo not shown) [Compound 31] came in with an IC50 below 10 µM.

`CC(c1nc2ccccc2c(=O)n1-c1ccc(F)cc1)N(C)C(=O)Nc1ccc([N+](=O)[O-])c(C(F)(F)F)c1` (stereo not shown) [Compound 32] had an IC50 in experiment [1] below 5 µM.

In the case of `CCCN(C(=O)Nc1cccc(Cl)c1)C(C)c1nc2ccccc2c(=O)n1-c1ccc(F)cc1` (stereo not shown) [Compound 34], the IC50 in experiment [1] is below 5 µM.

The compound `CCCN(C(=O)Nc1cccc(C(F)(F)F)c1)C(C)c1nc2ccccc2c(=O)n1-c1ccc(F)cc1` (stereo not shown) [Compound 36] displayed an IC50 in experiment [1] below 5 µM.

In turn, `CCCN(C(=O)Nc1cccc(OC)c1)C(C)c1nc2ccccc2c(=O)n1-c1ccc(F)cc1` (stereo not shown) [Compound 38] came in with an IC50 in experiment [1] below 5 µM.

In turn, `CCC(c1nc2ccccc2c(=O)n1-c1ccc(C)cc1)N(CCc1ccccc1)C(=O)CCCCF` (stereo not shown) [Compound 39] returned an IC50 in experiment [1] below 5 µM.

`CCCCc1ccc(C(=O)N(Cc2ccccc2)C(CC)c2nc3ccccc3c(=O)n2-c2ccc(C)cc2)cc1` (stereo not shown) [Compound 40] registered an IC50 in experiment [1] below 10 µM.

Consider `CCCCCCCCC(=O)N(CCCCC)C(C)c1nc2ccccc2c(=O)n1-c1ccccc1` (stereo not shown) [Compound 41], for which the IC50 in experiment [1] was below 10 µM.

On to `CCC(=O)N1CCN(C(CC)c2nc3ccccc3c(=O)n2-c2ccc(C)cc2)C(C)C1` (stereo not shown) [Compound 42], for which the IC50 in experiment [1] is below 5 µM.

In experiment [1], `CC(c1nc2ccccc2c(=O)n1-c1ccc(F)cc1)N1CCN(C(=O)Nc2ccc(Cl)c(Cl)c2)CC1` (stereo not shown) [Compound 43] gave an IC50 below 10 µM.

Consider `O=C(NCc1nc2ccccc2c(=O)n1-c1ccc(F)cc1)Nc1cccc(C(F)(F)F)c1` [Compound 44], for which the IC50 in experiment [1] is below 1 µM.

On to `CCC(c1nc2ccccc2c(=O)[nH]1)N1CCN(C(=O)Nc2ccc(Cl)c(Cl)c2)C(C)C1` (stereo not shown) [Compound 45], for which the IC50 in experiment [1] is below 5 µM.

In experiment [1], `CCC(c1nc2ccccc2c(=O)[nH]1)N1CCN(C(=O)c2ccc(-c3ccccc3)cc2)C(C)C1` (stereo not shown) [Compound 46] returned an IC50 below 0.5 µM.

In the case of `CCCN(CCC(=O)NC1CCCc2ccccc21)C(=O)c1cc(OC)cc(OC)c1` (stereo not shown) [Compound 47], the “expression of gli-1” value in experiment [2] is listed as “no significant decrease”. The IC50 in experiment [1] is below 5 µM.

With `CCC(C)N(CCC(=O)NC1CCCc2ccccc21)C(=O)c1cccc2ccccc12` (stereo not shown) [Compound 48], in experiment [2], the “expression of gli-1” value was “no significant decrease”. Also, in experiment [1], the IC50 is below 0.5 µM.

For the compound `CCC(C)N(CCC(=O)NC1CCCc2ccccc21)C(=O)COc1ccc(Cl)cc1` (stereo not shown) [Compound 49], the “expression of gli-1” value in experiment [2] is listed as “no significant decrease”. Besides, the half-maximal inhibitory concentration (IC50) in experiment [1] is below 1 µM.

`O=C(Cc1cccc(C(F)(F)F)c1)NCCc1nc2ccccc2c(=O)n1-c1ccc(F)cc1` [Compound 50] displayed an IC50 in experiment [1] below 1 µM.

Compound `CC(c1nc2ccccc2c(=O)n1-c1ccc(F)cc1)N(C)C(=O)Nc1cccc(C#N)c1` (stereo not shown) [Compound 51] yielded an IC50 in experiment [1] below 5 µM.

The compound `CC(c1nc2ccccc2c(=O)n1-c1ccc(F)cc1)N(C)C(=O)Nc1cccc(SC(F)(F)F)c1` (stereo not shown) [Compound 52] registered an IC50 in experiment [1] below 1 µM.

Regarding `CC(c1nc2ccccc2c(=O)n1-c1ccc(F)cc1)N(C)C(=O)Nc1ccc(Cl)c(Cl)c1` (stereo not shown) [Compound 53], in experiment [1], the IC50 is below 1 µM.

On to `CC(c1nc2ccccc2c(=O)n1-c1ccc(F)cc1)N(C)C(=O)Nc1ccc(C(F)(F)F)cc1` (stereo not shown) [Compound 54], for which the IC50 in experiment [1] is below 5 µM.

Take `CC(c1nc2ccccc2c(=O)n1-c1ccc(F)cc1)N(C)C(=O)Nc1cccc(F)c1` (stereo not shown) [Compound 55]: the half-inhibitory concentration (IC50) in experiment [1] was below 5 µM.

The compound `CC(c1nc2ccccc2c(=O)n1-c1ccc(F)cc1)N(C)C(=O)Nc1ccc(-c2ccccc2)cc1` (stereo not shown) [Compound 56] gave an IC50 in experiment [1] below 10 µM.

In experiment [1], `CC(C)c1cccc(NC(=O)N(C)C(C)c2nc3ccccc3c(=O)n2-c2ccc(F)cc2)c1` (stereo not shown) [Compound 57] yielded an IC50 below 10 µM.

In experiment [1], `CC(c1nc2ccccc2c(=O)n1-c1ccc(F)cc1)N(C)C(=O)Nc1cc(Cl)nc(Cl)c1` (stereo not shown) [Compound 58] showed an IC50 below 5 µM.

The compound `Cc1c(NC(=O)N(C)C(C)c2nc3ccccc3c(=O)n2-c2ccc(F)cc2)cccc1[N+](=O)[O-]` (stereo not shown) [Compound 59] came in with an IC50 in experiment [1] below 5 µM.

As for `CC(c1nc2ccccc2c(=O)n1-c1ccc(F)cc1)N(C)C(=O)Nc1ccc(SC(F)(F)F)cc1` (stereo not shown) [Compound 60], the IC50 in experiment [1] is below 5 µM.

Take `CC(c1nc2ccccc2c(=O)n1-c1ccc(F)cc1)N(C)C(=O)Nc1ccc(Cl)c(C(F)(F)F)c1` (stereo not shown) [Compound 61]: in experiment [1], the IC50 was below 1 µM.

As for `CC(c1nc2ccccc2c(=O)n1-c1ccc(F)cc1)N(C)C(=O)Nc1ccc([N+](=O)[O-])c(Cl)c1` (stereo not shown) [Compound 62], the IC50 in experiment [1] is below 1 µM.

On to `CCOC(=O)c1ccccc1NC(=O)N(C)C(C)c1nc2ccccc2c(=O)n1-c1ccc(F)cc1` (stereo not shown) [Compound 63], for which, in experiment [1], the IC50 was below 10 µM.

As to `CC(c1nc2ccccc2c(=O)n1-c1ccc(F)cc1)N(C)C(=O)Nc1ccc([N+](=O)[O-])cc1Cl` (stereo not shown) [Compound 64], in experiment [1], the IC50 is below 10 µM.

In turn, `CCOOC(=O)c1cccc(NC(=O)N(C)C(C)c2nc3ccccc3c(=O)n2-c2ccc(F)cc2)c1` (stereo not shown) [Compound 65] returned an IC50 in experiment [1] below 10 µM.

For `CC(c1nc2ccccc2c(=O)n1-c1ccc(F)cc1)N(C)C(=O)Nc1ccc(Cl)cc1[N+](=O)[O-]` (stereo not shown) [Compound 66], in experiment [1], the IC50 was below 10 µM.

Consider `Cc1c(NC(=O)NCc2nc3ccccc3c(=O)n2-c2ccc(F)cc2)cccc1SC(F)(F)F` [Compound 67], for which the IC50 in experiment [1] is below 5 µM.

Consider `O=C(NCc1nc2ccccc2c(=O)n1-c1ccc(F)cc1)Nc1ccc(Cl)c(Cl)c1` [Compound 68], for which, in experiment [1], the IC50 was below 1 µM.

In turn, `O=C(NCc1nc2ccccc2c(=O)n1-c1ccc(F)cc1)Nc1ccc(Cl)c([N+](=O)[O-])c1` [Compound 69] showed an IC50 in experiment [1] below 0.5 µM.

Consider `COc1cccc(NC(=O)NCc2nc3ccccc3c(=O)n2-c2ccc(F)cc2)c1C` [Compound 71], for which the IC50 in experiment [1] was below 10 µM.

In turn, `CC(NC(=O)Nc1cccc(C(F)(F)F)c1)c1nc2ccccc2c(=O)n1-c1ccc(F)cc1` (stereo not shown) [Compound 73] showed an IC50 in experiment [1] below 5 µM.

As to `O=C(NCCCc1nc2ccccc2c(=O)n1-c1ccc(F)cc1)Nc1cccc(C(F)(F)F)c1` [Compound 74], the IC50 in experiment [1] was below 5 µM.

As to `O=C(Nc1cccc(C(F)(F)F)c1)NC(c1nc2ccccc2c(=O)n1-c1ccc(F)cc1)C1CC1` (stereo not shown) [Compound 75], the IC50 in experiment [1] is below 5 µM.

Regarding `CC1=C2C(=O)[C@H]3[C@@H](CC=C4C[C@@H](O)CC[C@@]43C)[C@@H]2CC[C@]12O[C@@H]1C[C@H](C)CN[C@H]1[C@H]2C` [jervine, reference compound], the “expression of gli-1 mRNA” value in experiment [2] (positive control) is reported as “significantly decreased”.

The record behind these values is patent US9173869B2, “Mediators of hedgehog signaling pathways, compositions and uses related thereto” (CURIS, INC., priority 1999, dated 2015).
